Source: patent US4195101A, “2',6'-Dihydroxy-9-(2,5-dihydroxyphenyl)octylphenone and its use as an anti-oxidant” (The Lion Dentifrice Co. Ltd., priority 1977, dated 1980)

Key:
[1] = Solubility rating of 10 mg of the crystal in various solvents (Table I); assay type: physicochemical; settings: for Rating of Solubility: 10 mg of crystal
Protocol: This compound is obtained as needle-like or plate-like crystals white to pale-yellow in appearance, tasteless, odorless and non-irritative, and has a melting point of 123.5° to 124° C. The compound is soluble in various solvents as shown in Table I. In Table I, the solubility of the compound was rated by A, B, C and D and each rating was determined for 10 mg of the crystal as follows.
A: Soluble in less than 0.1 ml of solvent.
B: Soluble in 0.1-1.0 ml of solvent.
C: Soluble in 1.0-10.0 ml of solvent.
[…]: Soluble in more than 10.0 ml of solvent.

[2] = Test I: peroxide value of refined lard by the active oxygen method (AOM); settings: for Peroxide value: 97.5° C.
Protocol: (§1) The above-obtained compound was tested for its anti-oxidative effects in terms of peroxide value by the active oxygen method (AOM) and also in terms of oxygen absorption. […] Each of the tests I and II are described below together with the results thereof.
Varied amounts of the compound were admixed with and uniformly dissolved in portions of refined lard each weighing 20 g to prepare test samples. Each test sample was kept in an oil bath of thermostat at 97.5°±0.5° C., while air was forcedly blown into the lard at a rate of […].
The thus treated samples of the lard were analyzed for the peroxide value (POV for brevity) periodically or at certain intervals, in accordance with the modified Lea's method as described in "Yukagaku" (Journal of Japan Oil Chemist Society), vol. 19(15), p. 340, 1970.
In comparison, similar experiments were undertaken for the samples of the same lard with addition of BHA instead of the compound of the present invention or without addition of any anti-oxidant.

[3] = Test II: oxygen absorption in corn salad oil, Warburg's manometer; settings: 0.02% by weight in corn salad oil, 60° C.
Protocol: as §1
The compound of the present invention was determined for the rate of oxygen absorption in a corn salad oil to which 0.02% by weight of the compound had been added. For the purpose, 2 grams of the corn salad oil sample was taken in the receptacle of Warburg's manometer with thermostat at 60°±0.1° C., which was shaken with 110 vibrations per minute in a vibration amplitude of 60 mm. The rate of oxygen absorption was determined by reading the manometer according to the procedure set forth in "Jikken Kagaku Koza" (Lectures in Experimental Chemistry), vol. 24, p. 85, 1958, Maruzen Publishing, Japan. In this testing, the receptacle was totally wrapped with an aluminum foil to prevent the photooxidation of the oil, and mercury was used as the manometer fluid in place of Brodie's solution in order to minimize any possible influence caused by fluctuations in the atmospheric pressure.
Further, in comparison, a similar test was conducted using the same corn salad oil with addition of 0.02% by weight of BHA or without addition of any anti-oxidant.

[4] = Anti-oxidative activity, general statements
[5] = Irritation (statement on properties of the compound)
[6] = LD50, oral administration, mouse; settings: in vivo, po
[7] = system: mouse; assay: LD50, oral administration, mouse

O=C(CCCCCCCCc1cc(O)ccc1O)c1c(O)cccc1O [Inventive compound, 2',6'-dihydroxy-9-(2,5-dihydroxyphenyl)octylphenone]
Rating of Solubility ([1]; 1,2-Dichloroethane, at 25° C.): C (Soluble in 1.0-10.0 ml of solvent)
Rating of Solubility ([1]; 1,2-Dichloroethane, at the boiling point of solvent): A (Soluble in less than 0.1 ml of solvent)
Rating of Solubility ([1]; Acetone, at 25° C.): A (Soluble in less than 0.1 ml of solvent)
Rating of Solubility ([1]; Acetone, at the boiling point of solvent): A (Soluble in less than 0.1 ml of solvent)
Rating of Solubility ([1]; Acetonitrile, at 25° C.): A (Soluble in less than 0.1 ml of solvent)
Rating of Solubility ([1]; Acetonitrile, at the boiling point of solvent): A (Soluble in less than 0.1 ml of solvent)
Rating of Solubility ([1]; Benzene, at the boiling point of solvent): B (Soluble in 0.1-1.0 ml of solvent)
Rating of Solubility ([1]; Carbon tetrachloride, at the boiling point of solvent): C (Soluble in 1.0-10.0 ml of solvent)
Rating of Solubility ([1]; Chloroform, at 25° C.): C (Soluble in 1.0-10.0 ml of solvent)
Rating of Solubility ([1]; Chloroform, at the boiling point of solvent): C (Soluble in 1.0-10.0 ml of solvent)
Rating of Solubility ([1]; Dichloromethane, at the boiling point of solvent): C (Soluble in 1.0-10.0 ml of solvent)
Rating of Solubility ([1]; Diethylether, at 25° C.): A (Soluble in less than 0.1 ml of solvent)
Rating of Solubility ([1]; Diethylether, at the boiling point of solvent): A (Soluble in less than 0.1 ml of solvent)
Rating of Solubility ([1]; Ethyl acetate, at 25° C.): A (Soluble in less than 0.1 ml of solvent)
Rating of Solubility ([1]; Ethyl acetate, at the boiling point of solvent): A (Soluble in less than 0.1 ml of solvent)
Rating of Solubility ([1]; Ethyl alcohol, at 25° C.): A (Soluble in less than 0.1 ml of solvent)
Rating of Solubility ([1]; Ethyl alcohol, at the boiling point of solvent): A (Soluble in less than 0.1 ml of solvent)
Rating of Solubility ([1]; Methyl alcohol, at 25° C.): A (Soluble in less than 0.1 ml of solvent)
Rating of Solubility ([1]; Methyl alcohol, at the boiling point of solvent): A (Soluble in less than 0.1 ml of solvent)
Rating of Solubility ([1]; Pyridine, at 25° C.): A (Soluble in less than 0.1 ml of solvent)
Rating of Solubility ([1]; Pyridine, at the boiling point of solvent): A (Soluble in less than 0.1 ml of solvent)
Rating of Solubility ([1]; Toluene, at the boiling point of solvent): B (Soluble in 0.1-1.0 ml of solvent)
solubility in ethyl acetate and ethyl alcohol ([1]; ethyl acetate and ethyl alcohol, in words): readily soluble
Rating of Solubility ([1]; iso-Propyl alcohol, at 25° C.): A (Soluble in less than 0.1 ml of solvent)
Rating of Solubility ([1]; iso-Propyl alcohol, at the boiling point of solvent): A (Soluble in less than 0.1 ml of solvent)
solubility in ligroin and chloroform ([1]; ligroin and chloroform, in words): insoluble or hardly soluble
Rating of Solubility ([1]; n-Butyl alcohol, at 25° C.): A (Soluble in less than 0.1 ml of solvent)
Rating of Solubility ([1]; n-Butyl alcohol, at the boiling point of solvent): A (Soluble in less than 0.1 ml of solvent)
Rating of Solubility ([1]; n-Propyl alcohol, at 25° C.): A (Soluble in less than 0.1 ml of solvent)
Rating of Solubility ([1]; n-Propyl alcohol, at the boiling point of solvent): A (Soluble in less than 0.1 ml of solvent)
solubility in 1,2-dichloroethane, toluene or benzene ([1]; room temperature, in words): insoluble or hardly soluble
Peroxide value ([2]; 0.001 (% by weight) in lard, 8 hours): 2.4 meq./kg
Peroxide value ([2]; 0.001 (% by weight) in lard, 16 hours): 5.3 meq./kg
Peroxide value ([2]; 0.001 (% by weight) in lard, 24 hours): 8.2 meq./kg
Peroxide value ([2]; 0.001 (% by weight) in lard, 32 hours): 14.9 meq./kg
Peroxide value ([2]; 0.001 (% by weight) in lard, 40 hours): 419.9 meq./kg
Peroxide value ([2]; 0.005% by weight in lard, 8 hours): 1.8 meq./kg
Peroxide value ([2]; 0.005% by weight in lard, 16 hours): 5.0 meq./kg
Peroxide value ([2]; 0.005% by weight in lard, 24 hours): 5.9 meq./kg
Peroxide value ([2]; 0.005% by weight in lard, 32 hours): 6.3 meq./kg
Peroxide value ([2]; 0.005% by weight in lard, 48 hours): 12.0 meq./kg
Peroxide value ([2]; 0.005% by weight in lard, 56 hours): 18.2 meq./kg
Peroxide value ([2]; 0.005% by weight in lard, 64 hours): 560.9 meq./kg
prevention of oxidative denaturation of lard, compared with 0.02% by weight of BHA ([2]; 0.005% by weight of the compound in lard): to the same extent as done by adding 0.02% by weight of BHA
Peroxide value ([2]; 0.01% by weight in lard, 8 hours): 1.5 meq./kg
Peroxide value ([2]; 0.01% by weight in lard, 16 hours): 3.2 meq./kg
Peroxide value ([2]; 0.01% by weight in lard, 24 hours): 4.8 meq./kg
Peroxide value ([2]; 0.01% by weight in lard, 32 hours): 5.4 meq./kg
Peroxide value ([2]; 0.01% by weight in lard, 40 hours): 7.7 meq./kg
Peroxide value ([2]; 0.01% by weight in lard, 48 hours): 9.3 meq./kg
Peroxide value ([2]; 0.01% by weight in lard, 56 hours): 11.3 meq./kg
Peroxide value ([2]; 0.01% by weight in lard, 64 hours): 15.4 meq./kg
Peroxide value ([2]; 0.01% by weight in lard, 72 hours): 22.1 meq./kg
Peroxide value ([2]; 0.01% by weight in lard, 80 hours): 170.9 meq./kg
anti-oxidative effect compared with the same amount of BHA ([2]; 0.02% by weight): approximately twice as high as the same amount of BHA
Peroxide value ([2]; 0.02% by weight in lard, 8 hours): 1.8 meq./kg
Peroxide value ([2]; 0.02% by weight in lard, 16 hours): 2.9 meq./kg
Peroxide value ([2]; 0.02% by weight in lard, 24 hours): 3.8 meq./kg
Peroxide value ([2]; 0.02% by weight in lard, 32 hours): 4.5 meq./kg
Peroxide value ([2]; 0.02% by weight in lard, 40 hours): 6.0 meq./kg
Peroxide value ([2]; 0.02% by weight in lard, 48 hours): 7.2 meq./kg
Peroxide value ([2]; 0.02% by weight in lard, 56 hours): 8.2 meq./kg
Peroxide value ([2]; 0.02% by weight in lard, 64 hours): 10.6 meq./kg
Peroxide value ([2]; 0.02% by weight in lard, 72 hours): 13.2 meq./kg
Peroxide value ([2]; 0.02% by weight in lard, 80 hours): 14.5 meq./kg
Peroxide value ([2]; 0.02% by weight in lard, 96 hours): 21.5 meq./kg
Peroxide value ([2]; 0.02% by weight in lard, 112 hours): 59.3 meq./kg
Peroxide value ([2]; 0.02% by weight in lard, 120 hours): 390.7 meq./kg
Peroxide value ([2]; 0.1% by weight in lard, 8 hours): 2.1 meq./kg
Peroxide value ([2]; 0.1% by weight in lard, 16 hours): 3.0 meq./kg
Peroxide value ([2]; 0.1% by weight in lard, 24 hours): 4.1 meq./kg
Peroxide value ([2]; 0.1% by weight in lard, 32 hours): 5.2 meq./kg
Peroxide value ([2]; 0.1% by weight in lard, 40 hours): 7.9 meq./kg
Peroxide value ([2]; 0.1% by weight in lard, 48 hours): 8.7 meq./kg
Peroxide value ([2]; 0.1% by weight in lard, 56 hours): 9.9 meq./kg
Peroxide value ([2]; 0.1% by weight in lard, 64 hours): 11.8 meq./kg
Peroxide value ([2]; 0.1% by weight in lard, 72 hours): 13.5 meq./kg
Peroxide value ([2]; 0.1% by weight in lard, 80 hours): 16.0 meq./kg
Peroxide value ([2]; 0.1% by weight in lard, 96 hours): 18.5 meq./kg
Peroxide value ([2]; 0.1% by weight in lard, 112 hours): 24.0 meq./kg
Peroxide value ([2]; 0.1% by weight in lard, 120 hours): 24.1 meq./kg
Peroxide value ([2]; 0.1% by weight in lard, 144 hours): 29.9 meq./kg
Peroxide value ([2]; 0.1% by weight in lard, 168 hours): 32.1 meq./kg
Peroxide value ([2]; 0.1% by weight in lard, 192 hours): 38.1 meq./kg
Peroxide value ([2]; 0.1% by weight in lard, 200 hours): 45.0 meq./kg
Peroxide value ([2]; 0.1% by weight in lard, 264 hours): 678.2 meq./kg
Oxygen absorption ([3]; 85 hours): 84.4 μ1/g
Oxygen absorption ([3]; 140 hours): 138.7 μ1/g
Oxygen absorption ([3]; 166 hours): 159.8 μ1/g
Oxygen absorption ([3]; 199 hours): 174.8 μ1/g
Oxygen absorption ([3]; 263 hours): 238.0 μ1/g
Oxygen absorption ([3]; 288 hours): 280.4 μ1/g
Oxygen absorption ([3]; 320 hours): 334.6 μ1/g
Oxygen absorption ([3]; 343 hours): 375.3 μ1/g
anti-oxidative activities (summary of peroxide value and oxygen absorption tests) ([4]; AOM peroxide value and oxygen absorption): excellent anti-oxidative activities
anti-oxidative activities compared with the conventional anti-oxidant BHA ([4]; in foodstuffs, such as lard or the like): much higher anti-oxidative activities than the conventional anti-oxidant BHA
irritation [5]: non-irritative
LD50 [6]: > 2000 mg/kg
LD50 value compared with BHT [7]: about the same as in BHT
